Source: patent publication US11358944B2, “Anxiolytic deuterated compound and medical use thereof” (BEIJING JUNKE HUAYUAN MED TECH CO., LTD., priority 2017, dated 2022)

Assays:
[1] = system: Wistar rats; assay: elevated plus-maze test on rats (anxiolytic effect); assay type: in vivo, rat; conditions: 30 min after administration, within 5 minutes
Experimental: The anxiolytic effect of the compounds was evaluated using an elevated plus-maze test on rats.
The elevated plus-maze consists of two closed arms and two open arms cross each other with length, width and height respectively of 50 cm, 10 cm and 40 cm.
The central connecting area is 10 cm (length)×10 cm (width), and the maze is 50 cm above the ground, placed in the darker side of the fluorescent lamp and 1 meter away from the lamp. Wistar rats were randomly divided into groups with 5 per group, and the rats were fasted but not deprived of water for 12 hours; The test compound was formulated with 0.5% sodium carboxymethylcellulose into a suspension of certain concentration for intragastric administration. Thirty minutes after administration, the rats were placed in the central connecting area of the maze with the heads facing the direction of the open arms. Then the dwell time of the animals in the open arms within 5 minutes was recorded.

[2] = subacute toxicity, 7-day intragastric administration: blood biochemical and hematological indicators; assay type: in vivo, rat; conditions: 60 mg/kg intragastric once a day for 7 days; for plasma ALT compared with control group (Solvent group) / plasma AST compared with control group (Solvent group): SD rats, result in words; for ALT / AST: male Sprague-Dawley rats
Experimental: (§1) Male Sprague-Dawley rats (220-240 g), were randomly divided into groups with 5 per group; The test compound was formulated with 0.5% sodium carboxymethylcellulose into a preparation of a concentration of 60 mg/kg for intragastric administration once a day and continuously for 7 days. After the last administration, the SD rats were fasted but not deprived of water for 12 hours, and anesthetized. Their blood samples were obtained from the abdominal aortas and made to serum samples for determination of blood biochemical indicators and immunological indicators; EDTA Anticoagulated blood was prepared for general blood routine determination. Referring to the method of the literature (En Li, et al. Effect of buagafuran on liver microsomal cytochrome P450 in rats. J Asian Natural Products Research. 2010; 12: 371-381.), liver microsome was prepared from the liver taken, and the activity of CYP isoenzyme was determined using a probe substrate. The relative enzymatic activity of the test compound was calculated by taking the activity of the solvent group as 1.

[3] = system: CYP2E1; assay: induction of liver metabolic enzyme, liver microsome probe substrate activity after 7-day administration; assay type: in vivo, rat; conditions: 60 mg/kg intragastric once a day for 7 days; for Relative enzyme activity CYP2E1: rat liver microsome, solvent group = 1; for activity of metabolic enzyme CYP2E1 in the liver compared with solvent group: result in words
Experimental: as §1

[4] = system: CYP1A1; assay: as above; assay type: in vivo, rat; conditions: 60 mg/kg intragastric once a day for 7 days; for Relative enzyme activity CYP1A1: rat liver microsome, solvent group = 1; for activity of metabolic enzyme CYP1A1 in the liver compared with solvent group: result in words
Experimental: as §1

[5] = background statement; cited from earlier work
[6] = system: CYP2E1; conditions: literature, rats; cited from earlier work
[7] = background statement; cited from earlier work; remark: listed apart in the source
[8] = system: CYP1A2; conditions: literature, rats; cited from earlier work

Question: What does the source list for `[2H]C([2H])([2H])C([2H])([2H])C([2H])([2H])C([2H])([2H])C1=CCC[C@@]2(C)CC[C@@H]3C[C@]12OC3(C)C` [I-5, d9-BAF]?
Answer: dwell time in the open arms ([1]; 1 mg/kg intragastric): 72.0 ± 15.8 s; dwell time in the open arms ([1]; 2 mg/kg intragastric): 71.2 ± 15.3 s; dwell time in the open arms ([1]; 4 mg/kg intragastric): 76.5 ± 16.0 s; plasma ALT compared with control group (Solvent group) [2]: no significant differences; plasma AST compared with control group (Solvent group) [2]: no significant differences; ALT [2]: 56.6 U/L; AST [2]: 137.2 U/L; Relative enzyme activity CYP2E1 [3]: 1.2; activity of metabolic enzyme CYP2E1 in the liver compared with solvent group [3]: not significantly different; Relative enzyme activity CYP1A1 [4]: 1.3; activity of metabolic enzyme CYP1A1 in the liver compared with solvent group [4]: not significantly different

Question: Which “dwell time in the open arms” value ([1]; 1 mg/kg intragastric) does the source give for `[2H]C1([2H])C=C(CCCC)[C@]23OC(C)(C)[C@H](CC[C@]2(C)C1)C3([2H])[2H]` [I-3, d4-BAF] here?
Answer: 52.5 ± 26.0 s

Question: What about the “dwell time in the open arms” value ([1]; 2 mg/kg intragastric) of the same compound?
Answer: 67.2 ± 22.0 s

Question: And the “dwell time in the open arms” value ([1]; 4 mg/kg intragastric)?
Answer: 42.7 ± 25.1 s

Question: What does the source list for `[2H]C1=C(CCCC)[C@@]23C[C@@H](CC[C@]2(C)CC1([2H])[2H])C(C)(C)O3` [I-2, d3-BAF]?
Answer: dwell time in the open arms ([1]; 1 mg/kg intragastric): 45.6 ± 19.1 s; dwell time in the open arms ([1]; 2 mg/kg intragastric): 69.7 ± 29.8 s; dwell time in the open arms ([1]; 4 mg/kg intragastric): 39.0 ± 25.7 s; plasma ALT compared with control group (Solvent group) [2]: no significant differences; plasma AST compared with control group (Solvent group) [2]: no significant differences; ALT [2]: 74.0 U/L; AST [2]: 115.4 U/L; Relative enzyme activity CYP2E1 [3]: 1.0; activity of metabolic enzyme CYP2E1 in the liver compared with solvent group [3]: not significantly different; Relative enzyme activity CYP1A1 [4]: 1.4; activity of metabolic enzyme CYP1A1 in the liver compared with solvent group [4]: not significantly different

Question: With `[2H]C1([2H])C=C(CCCC)[C@@]23C[C@@H](CC[C@]2(C)C1)C(C)(C)O3` [I-1, d2-BAF] as the compound, how does the “dwell time in the open arms” value ([1]; 1 mg/kg intragastric) read?
Answer: 48.6 ± 21.7 s

Question: What about the “dwell time in the open arms” value ([1]; 2 mg/kg intragastric) of the same compound?
Answer: 68.4 ± 30.8 s

Question: And the “dwell time in the open arms” value ([1]; 4 mg/kg intragastric)?
Answer: 47.5 ± 23.6 s

Question: What about the “plasma ALT compared with control group (Solvent group)” value [2] of the same compound?
Answer: no significant differences

Question: And the “plasma AST compared with control group (Solvent group)” value [2]?
Answer: no significant differences

Question: And the ALT [2]?
Answer: 116.1 U/L

Question: And the AST [2]?
Answer: 163.9 U/L

Question: What about the “Relative enzyme activity CYP2E1” value [3] of the same compound?
Answer: 1.2

Question: And the “activity of metabolic enzyme CYP2E1 in the liver compared with solvent group” value [3]?
Answer: not significantly different

Question: What about the “Relative enzyme activity CYP1A1” value [4] of the same compound?
Answer: 1.7

Question: And the “activity of metabolic enzyme CYP1A1 in the liver compared with solvent group” value [4]?
Answer: not significantly different

Question: With `[2H]C1=C(C([2H])([2H])C([2H])([2H])C([2H])([2H])C([2H])([2H])[2H])[C@@]23C[C@@H](CC[C@]2(C)CC1)C(C)(C)O3` [I-6, d10-BAF] as the compound, how does the “dwell time in the open arms” value ([1]; 1 mg/kg intragastric) read?
Answer: 73.3 ± 17.6 s

Question: And the “dwell time in the open arms” value ([1]; 2 mg/kg intragastric)?
Answer: 71.4 ± 19.1 s

Question: What about the “dwell time in the open arms” value ([1]; 4 mg/kg intragastric) of the same compound?
Answer: 66.3 ± 19.6 s

Question: Which results are given for `CCCCC1=CCC[C@@]2(C)CC[C@@H]3C[C@]12OC3(C)C` [BAF, 4-butyl-α-agarofuran, reference compound]?
Answer: anxiolytic activity [5]: significant anxiolytic activity; induction effect on liver cytochrome P450 metabolic enzyme CYP2E1 [6]: significant induction effect; dwell time in the open arms ([1]; 1 mg/kg intragastric): 26.7 ± 27.0 s; dwell time in the open arms ([1]; 2 mg/kg intragastric): 45.2 ± 39.7 s; dwell time in the open arms ([1]; 4 mg/kg intragastric): 69.0 ± 49.0 s; oral bioavailability [7]: low; plasma ALT compared with control group (Solvent group) [2]: significantly increased; plasma AST compared with control group (Solvent group) [2]: significantly increased; ALT [2]: 189.0 U/L; AST [2]: 258.7 U/L; induction effect on liver cytochrome P450 metabolic enzyme CYP1A2 [8]: significant induction effect; Relative enzyme activity CYP2E1 [3]: 1.7; activity of metabolic enzyme CYP2E1 in the liver compared with solvent group [3]: significantly increased; Relative enzyme activity CYP1A1 [4]: 3.8; activity of metabolic enzyme CYP1A1 in the liver compared with solvent group [4]: significantly increased

Question: What does the source list for `[2H]C1=C(C([2H])([2H])C([2H])([2H])C([2H])([2H])C([2H])([2H])[2H])[C@@]23C[C@@H](CC[C@]2(C)CC1([2H])[2H])C(C)(C)O3` [I-8, d12-BAF]?
Answer: dwell time in the open arms ([1]; 1 mg/kg intragastric): 70.7 ± 23.2 s; dwell time in the open arms ([1]; 2 mg/kg intragastric): 76.9 ± 14.4 s; dwell time in the open arms ([1]; 4 mg/kg intragastric): 72.3 ± 17.8 s

Question: For `[2H]C1([2H])C=C(C([2H])([2H])C([2H])([2H])C([2H])([2H])C([2H])([2H])[2H])[C@@]23C[C@@H](CC[C@]2(C)C1)C(C)(C)O3` [I-7, d11-BAF], which “dwell time in the open arms” value ([1]; 1 mg/kg intragastric) is on record?
Answer: 77.5 ± 23.3 s

Question: What about the “dwell time in the open arms” value ([1]; 2 mg/kg intragastric) of the same compound?
Answer: 72.6 ± 18.6 s

Question: And the “dwell time in the open arms” value ([1]; 4 mg/kg intragastric)?
Answer: 73.8 ± 11.0 s

Question: And the “plasma ALT compared with control group (Solvent group)” value [2]?
Answer: no significant differences

Question: And the “plasma AST compared with control group (Solvent group)” value [2]?
Answer: no significant differences

Question: What about the ALT [2] of the same compound?
Answer: 48.7 U/L

Question: And the AST [2]?
Answer: 107.7 U/L

Question: What about the “Relative enzyme activity CYP2E1” value [3] of the same compound?
Answer: 0.9

Question: What about the “activity of metabolic enzyme CYP2E1 in the liver compared with solvent group” value [3] of the same compound?
Answer: not significantly different

Question: And the “Relative enzyme activity CYP1A1” value [4]?
Answer: 1.1

Question: What about the “activity of metabolic enzyme CYP1A1 in the liver compared with solvent group” value [4] of the same compound?
Answer: not significantly different
